From ChEMBL document CHEMBL2046380, “Synthesis and structure-activity relationship of disubstituted benzamides as a novel class of antimalarial agents” (Bioorg Med Chem Lett, 2012)

Legend:
Plasmodium falciparum [1] = assay: Antimalarial activity against […] incubated for 72 hrs by DNA staining based MARK1 growth inhibition assay; format: functional, organism-based
HEK293 = assay: Cytotoxicity against human HEK293 cells after 72 hrs by […] CellTiterGlo reagent assay; format: cell-based; conditions: HEK293, 72 h
HepG2 = assay: Cytotoxicity against human HepG2 cells after 72 hrs by […] CellTiterGlo reagent assay; format: cell-based; conditions: HepG2, 72 h
BJ = assay: Cytotoxicity against human BJ cells after 72 hrs by […] CellTiterGlo reagent assay; format: cell-based
Plasmodium falciparum [2] = assay: Antimalarial activity against chloroquine-sensitive Plasmodium falciparum 3D7 incubated for 72 hrs by DNA staining based MAR3D7 growth inhibition assay; format: functional, organism-based; conditions: 3D7, 72 h
Raji = assay: Cytotoxicity against human Raji cells after 72 hrs by […] CellTiterGlo reagent assay; format: cell-based

SMILES	EC50 (Plasmodium falciparum [1]) [µM]	EC50 (HEK293) [µM]	EC50 (HepG2) [µM]	EC50 (BJ) [µM]	EC50 (Plasmodium falciparum [2]) [µM]	EC50 (Raji) [µM]
CC(C)N(Cc1cccc(OCCCCCC(=O)O)c1)C(=O)c1ccc(-c2cc3ccccc3n2S(=O)(=O)c2ccccc2)cc1	> 15	> 26	> 26	> 26	> 15	> 26
CC(C)N(Cc1cccc(OCCCCCC(=O)O)c1)C(=O)c1ccc(-c2c[nH]c3ccccc23)cc1	> 15	> 26	> 26	> 26	> 15	> 26
CC(C)N(Cc1cccc(OCCCCCC(=O)O)c1)C(=O)c1ccc(-c2cccc(CC#N)c2)cc1	> 15	> 26	> 26	> 26	> 15	> 26
CCOC(=O)CCCCCOc1cccc(CN(C(=O)c2ccccc2)C(C)C)c1	> 12.5	> 26	> 26	> 26	> 15	> 26
CCOC(=O)CCCCCOc1cccc(CN(C(=O)c2ccc(-c3cccc4ccccc34)cc2)C(C)C)c1	> 15	> 26	> 26	> 26	> 15	> 26
CCOC(=O)CCCCCOc1cccc(CN(C(=O)c2ccc(-c3ccc4ccccc4c3)cc2)C(C)C)c1	> 15	> 26	> 26	> 26	> 15	> 26
CCOC(=O)CCCCCOc1cccc(CN(C(=O)c2ccc(-c3cccc(-c4ccccc4)c3)cc2)C(C)C)c1	> 15	> 26	> 26	> 26	> 15	> 26
CCOC(=O)CCCCCOc1cccc(CN(C(=O)c2ccc(-c3cccc(C(C)=O)c3)cc2)C(C)C)c1	> 15	> 26	> 26	> 26	> 1.5	> 26
CCOC(=O)CCCCCOc1cccc(CN(C(=O)c2ccc(-c3cccc(OCC(C)C)c3)cc2)C(C)C)c1	> 15	> 26	> 26	> 26	> 15	> 26
CCOC(=O)CCCCCOc1cccc(CN(C(=O)c2ccc(-c3cccc(OC(C)C)c3)cc2)C(C)C)c1	> 15	> 26	> 26	> 26	> 15	> 26
CCOC(=O)CCCCCOc1cccc(CN(C(=O)c2ccc(-c3cccc(Oc4ccccc4)c3)cc2)C(C)C)c1	> 10.9	> 19.7	> 26	> 19.7	> 10.9	> 19.7
CCOC(=O)CCCCCOc1cccc(CN(C(=O)c2ccc(-c3cccc(OCc4ccccc4)c3)cc2)C(C)C)c1	> 15	> 26	> 26	> 26	> 15	> 26
CCOC(=O)CCCCCOc1cccc(CN(C(=O)c2ccc(-c3cccc(OC)c3)cc2)C(C)C)c1	> 11.7	> 21.1	> 21.1	> 21.1	> 11.7	> 21
CCOC(=O)CCCCCOc1cccc(CN(C(=O)c2ccc(-c3cccc(OCC)c3)cc2)C(C)C)c1	> 12.4	> 22.4	> 22.4	> 22.4	> 12.4	> 22.4
CCOC(=O)CCCCCOc1cccc(CN(C(=O)c2ccc(-c3ccc4c(c3)OCCO4)cc2)C(C)C)c1	> 13.5	> 24.5	> 24.5	> 24.5	> 13.5	> 24.5
CCOC(=O)CCCCCOc1cccc(CN(C(=O)c2ccc(-c3cc(OC)cc(OC)c3)cc2)C(C)C)c1	> 15	> 26	> 26	> 26	> 15	> 26
CCOC(=O)CCCCCOc1cccc(CN(C(=O)c2ccc(-c3cccc(O)c3)cc2)C(C)C)c1	> 15	> 26	> 26	> 26	> 15	> 26
CCOC(=O)CCCCCOc1cccc(CN(C(=O)c2ccc(-c3cccc(OC(F)(F)F)c3)cc2)C(C)C)c1	> 15	> 26	> 26	> 26	> 15	> 26
CCOC(=O)CCCCCOc1cccc(CN(C(=O)c2ccc(-c3cc(F)cc(OC)c3)cc2)C(C)C)c1	> 15	> 26	> 26	> 26	> 15	> 26
CCOC(=O)CCCCCOc1cccc(CN(C(=O)c2ccc(-c3cc(OC)ccc3F)cc2)C(C)C)c1	> 15	> 26	> 26	> 26	> 15	> 26

SMILES	EC50 (Plasmodium falciparum [1]) [µM]	EC50 (HEK293) [µM]	EC50 (HepG2) [µM]	EC50 (BJ) [µM]	EC50 (Plasmodium falciparum [2]) [µM]	EC50 (Raji) [µM]
CCOC(=O)CCCCCOc1cccc(CN(C(=O)c2ccc(-c3cc(C(F)(F)F)cc(C(F)(F)F)c3)cc2)C(C)C)c1	> 15	> 26	> 26	> 26	> 15	> 26
CCOC(=O)CCCCCOc1cccc(CN(C(=O)c2ccc(-c3cccc(F)c3)cc2)C(C)C)c1	> 15	> 26	> 26	> 26	> 15	> 26
CCOC(=O)CCCCCOc1cccc(CN(C(=O)c2ccc(-c3cccc(Br)c3)cc2)C(C)C)c1	> 15	> 26	> 26	> 26	> 15	> 26
CCOC(=O)CCCCCOc1cccc(CN(C(=O)c2ccc(-c3ccc(Cl)c(Cl)c3)cc2)C(C)C)c1	> 15	> 26	> 26	> 26	> 15	> 26
CCOC(=O)CCCCCOc1cccc(CN(C(=O)c2ccc(-c3cccc(Cl)c3)cc2)C(C)C)c1	> 10.2	> 18.5	> 18.5	> 18.5	> 10.2	> 18.5
CCOC(=O)CCCCCOc1cccc(CN(C(=O)c2ccc(-c3cccc(S(C)(=O)=O)c3)cc2)C(C)C)c1	> 15	> 26	> 26	> 26	> 15	> 26
CCOC(=O)CCCCCOc1cccc(CN(C(=O)c2ccc(-c3cccc(CC(=O)O)c3)cc2)C(C)C)c1	> 15	> 26	> 26	> 26	> 15	> 26
CCOC(=O)CCCCCOc1cccc(CN(C(=O)c2ccc(-c3cccc(N(C)C)c3)cc2)C(C)C)c1	> 15	> 26	> 26	> 26	> 15	> 26
CCOC(=O)CCCCCOc1cccc(CN(C(=O)c2ccc(-c3cccc(NC(C)=O)c3)cc2)C(C)C)c1	> 15	> 26	> 26	> 26	> 15	> 26
CCOC(=O)CCCCCOc1cccc(CN(C(=O)c2ccc(-c3ccncc3)cc2)C(C)C)c1	0.0008	> 26	> 26	> 26	< 0.0008	> 26
CCOC(=O)CCCCCOc1cccc(CN(C(=O)c2ccc(-c3cccnc3)cc2)C(C)C)c1	> 15	> 26	> 26	> 26	> 15	> 26
CCOC(=O)CCCCCOc1cccc(CN(C(=O)c2ccc(-c3cnc(OC)nc3OC)cc2)C(C)C)c1	> 15	> 26	> 26	> 26	> 15	> 26
CCOC(=O)CCCCCOc1cccc(CN(C(=O)c2ccc(-c3ccoc3)cc2)C(C)C)c1	> 15	> 26	> 26	> 26	> 15	> 26
CCOC(=O)CCCCCOc1cccc(CN(C(=O)c2ccc(-c3ccco3)cc2)C(C)C)c1	> 15	> 26	> 26	> 26	> 15	> 26
CCOC(=O)CCCCCOc1cccc(CN(C(=O)c2ccc(-c3ccsc3)cc2)C(C)C)c1	> 15	> 26	> 26	> 26	> 15	> 26
CCOC(=O)CCCCCOc1cccc(CN(C(=O)c2ccc(-c3ccc(C(C)=O)s3)cc2)C(C)C)c1	> 15	> 26	> 26	> 26	> 15	> 26
CCOC(=O)CCCCCOc1cccc(CN(C(=O)c2ccc(-c3cccc(-c4nnc(C)o4)c3)cc2)C(C)C)c1	> 15	> 26	> 26	> 26	> 15	> 26
CCOC(=O)CCCCCOc1cccc(CN(C(=O)c2ccc(-c3ccc4[nH]ccc4c3)cc2)C(C)C)c1	> 15	> 26	> 26	> 26	> 15	> 26
CCOC(=O)CCCCCOc1cccc(CN(C(=O)c2ccc(-c3ccc4cc[nH]c4c3)cc2)C(C)C)c1	> 15	> 26	> 26	> 26	> 15	> 26
CCOC(=O)CCCCCOc1cccc(CN(C(=O)c2ccc(-c3cn(S(=O)(=O)c4ccccc4)c4ccccc34)cc2)C(C)C)c1	> 15	> 26	> 26	> 26	> 15	> 26
